Data: patent US8221736B2, “Semiochemical” (Rothamsted Research Limited, priority 1999, dated 2012)
Marks after values point to notes of the source that are not given here.

Key:
[1] = test system: D251 sequence in Vicia faba plants; assay: Differential display and northern blot of gene-specific sequence D251; format: in vivo; conditions: northern blot, versus air
Method: Total RNA was isolated from stem or leaf tissue of plants exposed to air, methyl jasmonate or cis-jasmone. 10 μg RNA per sample was loaded and separated on a formaldehyde gel (Panel A). The samples were then transferred to a nylon membrane and probed with the D251 sequence (Panel B). Lane 1=air treatment (control); lane 2=cis-jasmone treatment; lane 3=methyl jasmonate treatment. In the case of RNA isolated from leaf tissue, only cis-jasmone treatment results in upregulation. In order to determine if cis-jasmone was capable of inducing alterations in plant gene expression, the sensitive technique of differential display was carried out on RNA extracted from plants which had been exposed to air, methyl jasmonate or cis-jasmone. […] To confirm this observation, bands of interest were recovered by excision from the dried gel and re-amplified with the appropriate pair of oligonucleotide primers. The resulting PCR products were cloned and sequenced to confirm the homogeneous nature of the amplified product. These sequences were then used to probe RNA isolated from control or treated V. faba plants. […] It is important to note that the nature of the differential display technique generates short gene-specific probes, containing mainly 3′ untranslated regions of transcribed sequences, and therefore the functional part of the differentially expressed gene is unknown. Thus, using differential display and confirmatory northern blotting, we have shown that methyl jasmonate and cis-jasmone have apparently distinct effects on plant gene expression. […] Thus, the two compounds have distinct effect on plant gene expression and the response to these signalling compounds may be tissue-specific.

[2] = test system: lettuce aphid Nasonovia ribis-nigri; assay: 4-way olfactometer behavioural assay with alate lettuce aphids; format: in vivo; conditions: 1 μg in hexane on filter paper, 10 min, P<0.05
Method: Behavioural assays were done in a Perspex™ olfactometer similar to that described in J. Entomol. Scand. 1, 63-73 (1970) (Pettersson), with a weak airstream directed towards the centre from each of 4 side arms. The test compound (1 μg) in hexane (10 μl) was placed on filter paper (Whatman No. 1) at the end of one of the side arms, with hexane alone used as a control in the other arms. One alate virginopara of N. ribis-nigri was placed in the centre of the arena and its movements observed over 10 min. The apparatus, maintained at 24° C., was lit from above by fluorescent tubing and was rotated 90° every 2.5 min to avoid any directional bias. The experiment was replicated 6 times and results analysed by Student's t-test.

pollen beetles = assay: Field-trapping experiments with yellow bowl traps against pollen beetles; format: in vivo
Method: Field-trapping experiments were also conducted using cis-jasmone against pollen beetles. Attractive yellow bowl traps, at 1 m height and 10 m spacing, were placed in a Latin square design (one row of the Latin square=one replicate; traps are re-randomized to the next row of the square when a mean of 10 beetles are caught per trap). Catches in an unbaited bowl were compared with those bowls baited with cis-jasmone released at two different rates. Analysis was by ANOVA, on transformed total catch data. The transformation used was x=log10(y+1), where x and y are the transformed and untransformed data, respectively. Transformed means were compared using the LSD (least […] difference) test and transformed back to give the results as set out in Table 1.
P<0.05. Numbers in brackets are the percent reduction in trap catch compared with the unbaited trap.

[3] = test system: broad bean, V. faba (cv The Sutton); assay: Induction of volatile release by bean plants (air entrainment, GC/GC-MS); format: in vivo, Vicia faba; conditions: 24 hour exposure at 100 μg/l in air; from some replicates
Method: A possible role for the compound as an airborne plant signal was investigated using the broad bean, V. faba (cv The Sutton). Plants were kept for 24 hours in clean air or in air incorporating cis-jasmone at 100 μg/l; subsequently, samples of volatiles released by the plants were obtained by entrainment over 4 periods of 48 hours, i.e. up to 192 hours after the end of the treatment. The cis-jasmone itself was undetectable after 48 hours. […] There was also, from some replicates, enhancement of (E,E)-α-farnesene, (−)-β-caryophyllene and (E)-4,8-dimethyl-1,3,7-nonatriene. These compounds have all been implicated in herbivorous insect-induced production and increased parasitoid foraging. The nonatriene can also be produced innately by plants imitating damage for defence against herbivores and which are thus attractive to parasitoids.
Bean plants, V. faba (cv The Sutton) were grown under standard glasshouse conditions until the 2-4 leaf stage when they were rinsed free of soil and transplanted into baked glass jars containing washed sand, with 3 plants per jar. These were left for 1-2 days to acclimatize. Plants to be treated (three jars of three plants each) were sealed in a 25 l glass tank for 24 hours with either cis-jasmone or methyl jasmonate (2.5 mg) applied to a piece of filter paper (Whatman No. 1) placed on the floor of the tank. […]

With CC/C=C\CC1=C(C)CCC1=O [cis-jasmone] the “expression of D251 sequence in leaf tissue” value ([1]; RNA from leaf tissue of plants exposed to vapour) was “upregulated”, the “expression of D251 sequence in stem tissue” value ([1]; RNA from stem tissue of plants exposed to vapour) was “upregulated to a similar level” and the “mean number of entries into the treated arm” value ([2]; 6 replicates, control arms 4.3±0.58) was 2.0±0.58. The “mean time spent in the treated arm” value ([2]; control arms 2.1±0.36 minutes) was 0.5 ± 0.16 min, the “percent reduction in trap catch compared with the unbaited trap” value (shortened to “percent reduction in trap catch”) (pollen beetles; Analysis A, 2.2 mg/day) was “(44%)” and the “Back-transformed mean catch per replicate” value (pollen beetles; Analysis A, 2.2 mg/day, unbaited trap 127.3) was 70.9^b. For the same molecule, the “percent reduction in trap catch” value (pollen beetles; Analysis A, 25 mg/day) was “(59%)”, the “Back-transformed mean catch per replicate” value (pollen beetles; Analysis A, 25 mg/day, unbaited trap 127.3) was 51.7^c and the “percent reduction in trap catch” value (pollen beetles; Experiment A, 2.2 mg/day) was “(21%)”. The “Back-transformed mean catch per replicate” value (pollen beetles; Experiment A, 2.2 mg/day, unbaited trap 48.3) was 38.2^ab, the “percent reduction in trap catch” value (pollen beetles; Experiment A, 25 mg/day) was “(35%)” and the “Back-transformed mean catch per replicate” value (pollen beetles; Experiment A, 25 mg/day, unbaited trap 48.3) was 31.4^b. For the same molecule, the “percent reduction in trap catch” value (pollen beetles; Experiment B, 2.2 mg/day) was “(60%)”, the “Back-transformed mean catch per replicate” value (pollen beetles; Experiment B, 2.2 mg/day, unbaited trap 333.1) was 130.7^bc and the “percent reduction in trap catch” value (pollen beetles; Experiment B, 25 mg/day) was “(75%)”. For the same molecule, the “Back-transformed mean catch per replicate” value (pollen beetles; Experiment B, 25 mg/day, unbaited trap 333.1) was 84.6^c and the “release of (E,E)-α-farnesene, (−)-β-caryophyllene and (E)-4,8-dimethyl-1,3,7-nonatriene” value [3] was “enhancement”.
